# According to PubChem BioAssay AID330 (DTP/NCI, 2004):
# Several values for one entry are separate records, joined by “and”; a condition that tells them apart may be missing. Identical values can stand only once. Toxic doses and inconclusive results are not listed.
# System: P388 leukemia ip, CD2F1 mice, survival T/C
# Assay: NCI In Vivo Anticancer Drug Screen. Data for tumor model P388 Leukemia (intraperitoneal) in CD2F1 (CDF1) mice
# Conditions: endpoint: median survival time, higher = longer survival
# Outline: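 Mice carrying the transplanted tumor received test compound or vehicle. Survival was recorded in each group, and the value is the treated-group measurement divided by that of the vehicle-treated control group.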
# [1] = dose: 50.0 mg/kg/injection, schedule: Q01DX005 (ip), vehicle: Klucel (hydroxypropylcellulose) (HPC)
# [2] = dose: 100.0 mg/kg/injection, schedule: Q01DX005 (ip), vehicle: Klucel (hydroxypropylcellulose) (HPC)
# [3] = dose: 200.0 mg/kg/injection, schedule: Q01DX005 (ip), vehicle: Klucel (hydroxypropylcellulose) (HPC)
# [4] = dose: 25.0 mg/kg/injection, schedule: Q01DX009 (ip), vehicle: saline with Tween-80
# [5] = dose: 50.0 mg/kg/injection, schedule: Q01DX009 (ip), vehicle: saline with Tween-80
# [6] = dose: 50.0 mg/kg/injection, schedule: Q01DX009 (ip), vehicle: saline
# [7] = dose: 100.0 mg/kg/injection, schedule: Q01DX009 (ip), vehicle: saline
# [8] = dose: 200.0 mg/kg/injection, schedule: Q01DX009 (ip), vehicle: saline
# [9] = dose: 100.0 mg/kg/injection, schedule: Q01DX009 (ip), vehicle: saline with Tween-80
# [10] = dose: 6.25 mg/kg/injection, schedule: Q01DX009 (ip), vehicle: saline with Tween-80
# [11] = dose: 12.5 mg/kg/injection, schedule: Q01DX009 (ip), vehicle: saline with Tween-80
# [12] = dose: 50.0 mg/kg/injection, schedule: Q01DX005 (ip), vehicle: saline with Tween-80
# [13] = dose: 100.0 mg/kg/injection, schedule: Q01DX005 (ip), vehicle: saline with Tween-80
# [14] = dose: 200.0 mg/kg/injection, schedule: Q01DX005 (ip), vehicle: saline with Tween-80
compound,measurement,setting,value
CC(=O)Oc1cccn2c(C(=O)C(=O)c3ccc4c(OC(C)=O)cccn34)ccc12,T/C,[1],92 % of control
same,T/C,[2],86 % of control
same,T/C,[3],94 % of control
CCCCOC1OCN(C)CC1(C)C (stereo not drawn),T/C,[4],98 % of control
same,T/C,[5],114 % of control
CCN(CC)CCC1CN(C(C)C)CC1(c1ccccc1)c1ccccc1 (stereo not drawn),T/C,[6],101 % of control
same,T/C,[7],109 % of control
same,T/C,[8],116 % of control
C/C(=C/C=C(c1ccccc1)c1ccccc1)C1CCC2C3CCC4CC5CCC4(C)C3(O5)C(=O)CC12C (stereo not drawn),T/C,"dose: 6.25 mg/kg/injection, schedule: Q04DX002 (sc), vehicle: steriod suspending solution",102 % of control
same,T/C,"dose: 12.5 mg/kg/injection, schedule: Q04DX002 (sc), vehicle: steriod suspending solution",105 % of control
same,T/C,"dose: 25.0 mg/kg/injection, schedule: Q04DX002 (sc), vehicle: steriod suspending solution",101 % of control
same,T/C,"dose: 50.0 mg/kg/injection, schedule: Q04DX002 (sc), vehicle: steriod suspending solution",101 % of control
CC(=O)c1ccc2c(=O)n3c4ccccc4nc3c3cccc1c23,T/C,[5],118 % of control
same,T/C,[9],104 % of control
CCOC(=O)NCCCCl,T/C,[6],99 % of control
same,T/C,[7],101 % of control
same,T/C,[8],107 % of control
COC(=O)c1[nH]c(=O)[nH]c(=O)c1F,T/C,"dose: 8.0 mg/kg/injection, schedule: Q01DX009 (ip), vehicle: saline with Tween-80",118 % of control
same,T/C,"dose: 16.0 mg/kg/injection, schedule: Q01DX009 (ip), vehicle: saline with Tween-80",104 % of control
same,T/C,"dose: 22.0 mg/kg/injection, schedule: Q04DX003 (ip), vehicle: saline with Tween-80",110 % of control
same,T/C,[4],100 % of control
same,T/C,[5],100 % of control
same,T/C,"dose: 50.0 mg/kg/injection, schedule: Q04DX003 (ip), vehicle: saline with Tween-80",155 % of control
same,T/C,[9],90 % of control
CN1CCC(/C=C/c2cccc3ccccc23)CN1 (stereo not drawn) (tested in a mixture with another compound),T/C,[6],108 % of control
same,T/C,[7],99 % of control
CC(C)CC(NC(=O)C(C)N)C(=O)NC(C)C(=O)NC1C(O)OC(CO)C(O)C1O (stereo not drawn),T/C,"dose: 100.0 mg/kg/injection, schedule: Q01DX001 (ip), vehicle: saline with Tween-80",100 % of control
same,T/C,"dose: 200.0 mg/kg/injection, schedule: Q01DX001 (ip), vehicle: saline with Tween-80",97 % of control
same,T/C,"dose: 400.0 mg/kg/injection, schedule: Q01DX001 (ip), vehicle: saline with Tween-80",91 % of control
CCCCNC(=O)ON1C(=O)c2ccccc2C1=O,T/C,"dose: 1.56 mg/kg/injection, schedule: Q01DX009 (ip), vehicle: saline with Tween-80",105 % of control
same,T/C,"dose: 3.12 mg/kg/injection, schedule: Q01DX009 (ip), vehicle: saline with Tween-80",105 % of control
same,T/C,[10],102 % of control and 117 % of control
same,T/C,[11],110 % of control and 113 % of control
same,T/C,[4],119 % of control
CC(C)(C#N)NCCCNC(C)(C)C#N,T/C,"dose: 50.0 mg/kg/injection, schedule: Q01DX005 (ip), vehicle: saline",100 % of control
same,T/C,"dose: 100.0 mg/kg/injection, schedule: Q01DX005 (ip), vehicle: saline",97 % of control
same,T/C,"dose: 200.0 mg/kg/injection, schedule: Q01DX005 (ip), vehicle: saline",95 % of control
CCCCNC(=S)N/N=C/c1ccccn1,T/C,[4],101 % of control
same,T/C,[5],94 % of control
same,T/C,[9],111 % of control
C[As+](C)(C)CC(=O)O,T/C,[6],99 % of control
same,T/C,[7],99 % of control
same,T/C,[8],101 % of control
Cc1ccc(CN2CC(=O)N3Cc4ccccc4CN3C(=O)C2)cc1,T/C,[12],103 % of control
same,T/C,[13],116 % of control
same,T/C,[14],98 % of control
C=C(C)C1CC=C(C)C(CCC2C(=C)CCC3C(C)(C)C(OC4OC(CO)C(O)C(O)C4NC(C)=O)CCC23C)C1(C)CCC(=O)O (stereo not drawn),T/C,"dose: 35.75 mg/kg/injection, schedule: Q01DX005 (ip), vehicle: Klucel (hydroxypropylcellulose) (HPC)",91 % of control
same,T/C,"dose: 71.5 mg/kg/injection, schedule: Q01DX005 (ip), vehicle: Klucel (hydroxypropylcellulose) (HPC)",87 % of control
same,T/C,"dose: 143.0 mg/kg/injection, schedule: Q01DX005 (ip), vehicle: Klucel (hydroxypropylcellulose) (HPC)",97 % of control
CN(C)CCCNc1nc(-c2cccc(C(Cl)(Cl)Cl)c2)nc(C(Cl)(Cl)Cl)n1,T/C,[4],109 % of control
same,T/C,[5],111 % of control
COc1ccc(/C=N/NC(=O)COCC(=O)N/N=C/c2ccc(OC)cc2)cc1,T/C,[12],100 % of control
same,T/C,[13],88 % of control
same,T/C,[14],91 % of control
O=C1c2ccccc2-c2cn(-c3ccccc3)c3cccc1c23,T/C,[1],103 % of control
same,T/C,[2],100 % of control
CN(C)c1ccc2c(N(C)C)cc(N(C)C)[n+](C)c2c1,T/C,"dose: 0.78 mg/kg/injection, schedule: Q01DX009 (ip), vehicle: distilled water + Tween-80 + alcohol",106 % of control
same,T/C,"dose: 1.56 mg/kg/injection, schedule: Q01DX009 (ip), vehicle: distilled water + Tween-80 + alcohol",115 % of control
CCC12C(=O)C(CC)(C(c3ccccc3)=C1c1ccccc1)C1OC(=O)OC12 (stereo not drawn),T/C,[5],97 % of control
same,T/C,[9],91 % of control
same,T/C,"dose: 200.0 mg/kg/injection, schedule: Q01DX009 (ip), vehicle: saline with Tween-80",86 % of control
CC(C)(C)C(=O)CC(=O)C(F)(F)C(F)(F)C(F)(F)F.[Ag],T/C,[10],119 % of control
same,T/C,[11],119 % of control
same,T/C,[4],114 % of control
O=C(CC(O)(C(F)(F)F)C(F)(F)F)c1ccc(C(=O)CC(O)(C(F)(F)F)C(F)(F)F)cc1,T/C,"dose: 12.5 mg/kg/injection, schedule: Q01DX009 (ip), vehicle: other",100 % of control
same,T/C,"dose: 25.0 mg/kg/injection, schedule: Q01DX009 (ip), vehicle: other",100 % of control
same,T/C,"dose: 50.0 mg/kg/injection, schedule: Q01DX009 (ip), vehicle: other",100 % of control
same,T/C,"dose: 66.0 mg/kg/injection, schedule: Q04DX003 (ip), vehicle: other",95 % of control
same,T/C,"dose: 100.0 mg/kg/injection, schedule: Q04DX003 (ip), vehicle: other",95 % of control
same,T/C,"dose: 150.0 mg/kg/injection, schedule: Q04DX003 (ip), vehicle: other",100 % of control
CCN1CCc2nc(N)oc2CC1,T/C,[6],107 % of control
same,T/C,[7],110 % of control
same,T/C,[8],115 % of control
COC(=O)/C=C(/Nc1c(Cl)sc2ccccc2c1=O)C(=O)OC,T/C,[12],97 % of control
same,T/C,[13],97 % of control
same,T/C,[14],95 % of control
Cc1nonc1-c1ccc2c(c1)OCO2,T/C,"dose: 25.0 mg/kg/injection, schedule: Q01DX009 (ip), vehicle: Klucel (hydroxypropylcellulose) (HPC)",110 % of control
same,T/C,"dose: 50.0 mg/kg/injection, schedule: Q01DX009 (ip), vehicle: Klucel (hydroxypropylcellulose) (HPC)",105 % of control
same,T/C,"dose: 100.0 mg/kg/injection, schedule: Q01DX009 (ip), vehicle: Klucel (hydroxypropylcellulose) (HPC)",106 % of control
same,T/C,"dose: 200.0 mg/kg/injection, schedule: Q01DX009 (ip), vehicle: Klucel (hydroxypropylcellulose) (HPC)",105 % of control
COC(=O)CC1=NNC(=O)C1,T/C,"dose: 100.0 mg/kg/injection, schedule: Q01DX001 (ip), vehicle: Klucel (hydroxypropylcellulose) (HPC)",93 % of control
same,T/C,"dose: 200.0 mg/kg/injection, schedule: Q01DX001 (ip), vehicle: Klucel (hydroxypropylcellulose) (HPC)",99 % of control
same,T/C,"dose: 400.0 mg/kg/injection, schedule: Q01DX001 (ip), vehicle: Klucel (hydroxypropylcellulose) (HPC)",100 % of control
CC(=O)NC1=NN(C(C)=O)C(C)(c2ccccc2)S1=O (stereo not drawn),T/C,[12],103 % of control
same,T/C,[13],107 % of control
same,T/C,[14],101 % of control
NC12CC3CC(CC(C3)C1)C2,T/C,"dose: 25.0 mg/kg/injection, schedule: Q01DX005 (ip), vehicle: saline with Tween-80",97 % of control
same,T/C,[12],92 % of control
same,T/C,[13],88 % of control
CC1CCCC2=C1C(O)c1cccc(N)c1C2O (stereo not drawn),T/C,[1],102 % of control
same,T/C,[2],96 % of control
same,T/C,[3],88 % of control
C=C(CO)C(=O)OC1CC(=C)C2CC(O)C(=C)C2C2OC(=O)C(=C)C12 (stereo not drawn),T/C,"dose: 100.0 mg/kg/injection, schedule: Q01DX001 (ip), vehicle: saline",113 % of control
same,T/C,"dose: 200.0 mg/kg/injection, schedule: Q01DX001 (ip), vehicle: saline",99 % of control
same,T/C,"dose: 400.0 mg/kg/injection, schedule: Q01DX001 (ip), vehicle: saline",104 % of control
CN=C(c1ccc(NC(=O)c2ccc(C(=O)Nc3ccc(C(=NC)N(C)C4CCCCC4)cc3)cc2)cc1)N(C)C1CCCCC1,T/C,"dose: 0.78 mg/kg/injection, schedule: Q01DX005 (ip), vehicle: Klucel (hydroxypropylcellulose) (HPC)",104 % of control
same,T/C,"dose: 1.56 mg/kg/injection, schedule: Q01DX005 (ip), vehicle: Klucel (hydroxypropylcellulose) (HPC)",101 % of control
same,T/C,"dose: 3.12 mg/kg/injection, schedule: Q01DX005 (ip), vehicle: Klucel (hydroxypropylcellulose) (HPC)",104 % of control
